The values that follow are results of earlier work, collected in patent publication US20250331550A1, “AEROSOL-GENERATING ARTICLE EMBEDDED AVERSIVE AGENT” (PHILIP MORRIS PRODUCTS S.A., priority 2022, published 2025).

Where a name gives a salt, the structure may show the parent alone.

The data set has as its system test panel. Particulars: reciprocal of the dilution that still has a bitter taste; quinine hydrochloride set at 200,000.
With `C=C[C@H]1C[N@@]2CC[C@H]1C[C@H]2[C@H](O)c1ccnc2ccc(OC)cc12` [Quinine hydrochloride, quinine hydrochloride], the Bitterness value is 200,000.

In the case of amarogentin, the Bitterness value is reported as 58,000,000. As to `CC1=C[C@H]2[C@H]3[C@H](C(C)=C4[C@H]5OC(=O)[C@@H](C)[C@@H]5CC[C@](C)(O)[C@@H]43)[C@@]13[C@@H]2[C@@](C)(O)CC[C@H]1[C@H](C)C(=O)O[C@@H]13` [Absinthin, absinthin], the Bitterness value is recorded as 3,000,000. For `C[C@@]12C[C@@H](c3ccoc3)OC(=O)[C@@H]1CC[C@]1(C)[C@H]2[C@@H]2C=C[C@@]1(O)C(=O)O2` [Columbin, columbin], the Bitterness value is 60,000,000. On to `COC1=C[C@@H](C)[C@@H]2C[C@H]3OC(=O)C[C@H]4C(C)=C(OC)C(=O)[C@H]([C@@]2(C)C1=O)[C@@]34C` [Quassin, quassin], for which the Bitterness value is listed as 13,000,000.
